Ten molecules from PMC9521575, “Multiple tachykinins and their receptors characterized in the gastropod mollusk Pacific abalone: Expression, signaling cascades, and potential role in regulating lipid metabolism” (Frontiers in Endocrinology, 2022) can be followed below.

For test [1], the system named is Hdh-TKRL-mediated phosphorylation of ERK1/2. Kind of test: Western blotting of ERK1/2 phosphorylation in Hdh-TKRL-transfected HEK293 cells. The note with it: inhibitor 10^-5 M pre-incubated 60 min, then Hdh-TK2-2 for 5 min, western blot. The format is cell-based, Human. On the procedure: (§1) HEK293 cells were seeded into 6-well plates (0.3 × 10^6 cells/well) and transfected with 3 μg of pcDNA3-HA-Hdh-TKR plasmids or vehicle pcDNA3-HA plasmid as described for the luciferase reporter assays. At 24 h after transfection, the cells were incubated with serum-free DMEM for 6 h at 37°C and then exposed to a PKA inhibitor (H89, 10^-5 M; Sigma-Aldrich) or PKC inhibitor (Gö6983, 10^-5 M; Sigma-Aldrich) for 60 min. After the medium was replace with fresh serum-free DMEM, the cells were exposed to Hdh-TK-2-2 peptide (5×10^-9 or 10^-7 M) or TPA (10^-7 M) for a further 5 min. The methods employed for cell lysate preparation, polyacrylamide gel electrophoresis, protein transfer to nitrocellulose membranes, and membrane washing were from a previous report ([39]). The membranes were incubated with a monoclonal mouse p44/42 MAPK, rabbit phospho-p44/42 MAPK (ERK1/2) (Thr202/Tyr204) (Cell Signaling, Danvers, MA, USA), or mouse GAPDH (Santa Cruz Biotechnology, Santa Cruz, CA, USA) primary antibody at 4°C for 16 h, followed by incubation with goat anti-mouse IgG-HRP or goat anti-rabbit IgG-HRP secondary antibody (Santa Cruz Biotechnology, Santa Cruz, CA, USA) at room temperature for 2 h. […]
A general note: In western blotting, separated proteins are transferred to a membrane and probed.

Test [2] has as its system Hdh-TKRS-mediated phosphorylation of ERK1/2. The test is described as follows: Western blotting of ERK1/2 phosphorylation in Hdh-TKRS-transfected HEK293 cells. The note with it: inhibitor 10^-5 M pre-incubated 60 min, then Hdh-TK2-2 for 5 min, western blot. The format is cell-based, Human. On the procedure:
as §1

Test [3] concerns Hdh-TKRS. Kind of test: CRE-Luc luciferase reporter assay in Hdh-TKRS-expressing HEK293 cells. Type of test: cell-based, Haliotis discus hannai. The note with it: for EC50: HEK293 cells, peptide treatment 6 h, Supplementary Table 3, read-out: EC50 for Hdh-TKRS activation, CRE-Luc reporter. On the procedure: (§2) Human embryonic kidney 293 (HEK293) cells were maintained in Dulbecco’s modified Eagle medium (DMEM; Gibco, Loughborough, UK) containing 10% fetal bovine serum (FBS; Hyclone, GE Healthcare, Chicago, IL, USA) and 1% penicillin/streptomycin (P/S; Invitrogen) at 37°C in 5% CO2. Sixteen hours before transfection, HEK293 cells were seeded into 24-well plates (5 × 10^4 cells/well). Transfection and luciferase activities were analyzed as previously described ([39]). Briefly, HEK293 cells were transfected with 100 ng of pcDNA3-HA expression plasmid containing Hdh-TKR (pcDNA3-HA-Hdh-TKR) or vehicle pcDNA3-HA plasmid using 0.9 μL of a polyethyleneimine transfection reagent (Sigma-Aldrich, St. Louis, MO, USA), along with 100 ng of a luciferase reporter plasmid containing cAMP response element (CRE-Luc) or serum response element (SRE-Luc), and 100 ng of a pRSV-β-galactosidase expression plasmid as an internal control. At 3 h after transfection, the culture medium was replaced by new DMEM with 1% P/S and 10% FBS, and the HEK293 cells were cultured for a further 30 h and then maintained in DMEM without FBS for 16 h. Finally, the HEK293 cells were treated with synthesized peptides, forskolin (Sigma-Aldrich), 12-O-tetradecanoylphorbol-13-acetate (TPA; Sigma-Aldrich), or an equal volume of peptide-free medium (as vehicle control) for 6 h. Luciferase activity was analyzed using a microplate-luminometer (Berthold Tech., Bad Wildbad, Germany) and normalized to the β-galactosidase activity, detected by absorbance at 405 nm using a microplate reader (Tecan, Mannedorf, Switzerland).
In general terms: Reporter assays use an easily measured gene product as a stand-in for the process of interest.

The test system of test [4] is Hdh-TKRL. Kind of test: SRE-Luc luciferase reporter assay in Hdh-TKRL-expressing HEK293 cells. The format is cell-based, Haliotis discus hannai. The note with it: for EC50: HEK293 cells, peptide treatment 6 h, Supplementary Table 4, read-out: EC50 for Hdh-TKRL activation, SRE-Luc reporter. The protocol: as §2
For test [5], the system named is Hdh-TKRS. The test is described as follows: Ca2+ mobilization assay (aequorin luminescence) in Hdh-TKRS-transfected CHO-K1 cells. The format is cell-based, Haliotis discus hannai. To be noted: Hdh-TKRS- and aequorin-expressing CHO-K1 cells; luminescence relative to maximal response at 10^-6 M; n = 3 or 4; read-out: EC50 on intracellular Ca2+ mobilization. The protocol:
(§3) Ca^2+ mobilization assays were performed as described previously ([39]). Briefly, Chinese hamster ovary K1 (CHO-K1) cells were maintained in DMEM-F12 Nutrient Mixture Ham supplemented with 10% FBS (Hyclone) and 1% P/S (Invitrogen) at 37°C in 5% CO2. Cells were grown in a monolayer to 60% confluency in 100 mm dishes (1.5 × 10^6 cells) and transiently transfected with 2 μg of pcDNA3-HA-Hdh-TKR plasmid with 2 μg of a Ca^2+-reporter aequorin plasmid and 2 μg of Gαq plasmid using 18 μL of FuGENE6 transfection reagent (Promega). The cells were washed in assay buffer including phenol red-free DMEM/F-12 with 0.1% bovine serum albumin (BSA) and 1% P/S and collected by brief centrifugation. Probenecid (1.25 mM final concentration, Invitrogen) and coelenterazine (5 μM, Gold Biotech., St. Louis, MO, USA) were added to resuspended CHO-K1 cells in 5 mL of assay buffer and the cells were gently agitated for 2.5 h using a magnetic stirrer at room temperature and shielded from light. […] While stirring gently, 50 μL of the cell suspension was injected into a luminescence microplate reader (Berthold Tech.), and luminescence was recorded for 20 s and for a further 10 s after injection of the assay buffer, including 0.2% Triton X-100 to measure the total Ca^2+ response. […]

Test [6] concerns Hdh-TKRS. Kind of test: SRE-Luc luciferase reporter assay in Hdh-TKRS-expressing HEK293 cells. The format is cell-based, Haliotis discus hannai. The note with it: for EC50: HEK293 cells, peptide treatment 6 h, Supplementary Table 3, read-out: EC50 for Hdh-TKRS activation, SRE-Luc reporter. The protocol:
as §2

Test [7] concerns Hdh-TKRL. Kind of test: Ca2+ mobilization assay (aequorin luminescence) in Hdh-TKRL-transfected CHO-K1 cells. Type of test: cell-based, Haliotis discus hannai. To be noted: Hdh-TKRL- and aequorin-expressing CHO-K1 cells; luminescence relative to maximal response at 10^-6 M; n = 3 or 4; read-out: EC50 on intracellular Ca2+ mobilization. The protocol:
as §3
For orientation: Calcium flux is commonly read through the fluorescence of an indicator in the cells.

Test [8] concerns Hdh-TKRL. The test is described as follows: CRE-Luc luciferase reporter assay in Hdh-TKRL-expressing HEK293 cells. Type of test: cell-based, Haliotis discus hannai. The note with it: for EC50: HEK293 cells, peptide treatment 6 h, Supplementary Table 4, read-out: EC50 for Hdh-TKRL activation, CRE-Luc reporter. On the procedure:
as §2

The target of test [9] is Hdh-TKRS (tachykinin receptor, short isoform) (Haliotis discus hannai).
Test [10] deals with Hdh-TKRL (tachykinin receptor, long isoform) (Haliotis discus hannai).
[11] abbreviates: Hdh-TKRS-transfected HEK293 cells, n = 3.
Setting [12] is: Hdh-TKRL-transfected HEK293 cells, n = 3.

Non-standard residues stand in square brackets, D forms with d. Residues, ends and D or L forms follow the SMILES beside them. No end group written: not given here. pGlu = O=C1CC[C@@H](C(=O)O)N1

Consider `COc1ccc2c(c1)c(C1=C(c3c[nH]c4ccccc34)C(=O)NC1=O)cn2CCCN(C)C` [Gö6983], for which the “effect of inhibitor on Hdh-TKRL-mediated phosphorylation of ERK1/2” value in test [1] is “almost abolished”. Further, in [2], the “effect of inhibitor on Hdh-TKRS-mediated phosphorylation of ERK1/2” value is “almost abolished”.

Turning to `O=S(=O)(NCCNC/C=C/c1ccc(Br)cc1)c1cccc2cnccc12` [H89], the “effect of inhibitor on Hdh-TKRL-mediated phosphorylation of ERK1/2” value in test [1] is reported as “decreased”.

With `CC(C)[C@H](NC(=O)CNC(=O)[C@H](Cc1c[nH]cn1)NC(=O)[C@H](Cc1ccccc1)NC(=O)CNC(=O)[C@H](Cc1ccccc1)NC(=O)[C@H](Cc1c[nH]cn1)NC(=O)[C@@H]1CCCN1C(=O)[C@@H]1CCC(=O)N1)C(=O)N[C@@H](CCCNC(=N)N)C(N)=O` [Hdh-TK1-3] ([pGlu]PHFGFHGVR-NH2), the EC50 with Hdh-TKRS [3] amounted to 15.1 nM; in the test with Hdh-TKRL [4], 155 nM; in the test on Hdh-TKRS [5], 1.7 nM; in the test with Hdh-TKRS [6], 171 nM; in the test on Hdh-TKRL [7] it was 1.1 nM; in the test with Hdh-TKRL [8], 284 nM.

Take `CC(C)[C@H](NC(=O)[C@H](Cc1ccccc1)NC(=O)CNC(=O)[C@H](Cc1ccccc1)NC(=O)[C@H](Cc1c[nH]cn1)NC(=O)[C@H](CCCNC(=N)N)NC(=O)CN)C(=O)NCC(=O)N[C@@H](CO)C(=O)N[C@@H](CCCNC(=N)N)C(N)=O` [Hdh-TK2-1] (H-GRHFGFVGSR-NH2): the concentration for a half-maximal effect (EC50) in the test with Hdh-TKRS [3] stood at 180 nM; in the test on Hdh-TKRL [4], 141 nM; in the test with Hdh-TKRS [5] it was 4 nM; in the test on Hdh-TKRS [6] it was 3340 nM; in the test on Hdh-TKRL [7], 5.2 nM; in the test on Hdh-TKRL [8], 1100 nM.

On to “APGWamide [abalone APGWamide peptide used as a negative control, reference compound]”, for which the “CRE-Luc reporter activity (in words)” value with Hdh-TKRS [3] (setting [11]) and with Hdh-TKRL [8] (setting [12]) was “did not activate” throughout. The “SRE-Luc reporter activity (in words)” value with Hdh-TKRL [4] (setting [12]) and with Hdh-TKRS [6] (setting [11]) was “did not activate” each time.

Regarding FGYVGSR-NH2 [Hdh-TK1-1], in test [9], the EC50 of intracellular Ca2+ mobilization (aequorin luminescence) in Hdh-TKRS-transfected CHO-K1 cells was found to be 14.7 nM. Besides, the EC50 of intracellular Ca2+ mobilization (aequorin luminescence) in Hdh-TKRL-transfected CHO-K1 cells in test [10] is 9.4 nM.

On to KPHFGFHGSR-NH2 [Hdh-TK2-2], for which the EC50 of intracellular Ca2+ mobilization (aequorin luminescence) in Hdh-TKRS-transfected CHO-K1 cells in test [9] came to 1.2 nM. The EC50 of intracellular Ca2+ mobilization (aequorin luminescence) in Hdh-TKRL-transfected CHO-K1 cells in test [10] turned out to be 0.7 nM.

For the molecule TELGFGYVGSR-NH2 [Hdh-TK1-2], the EC50 of intracellular Ca2+ mobilization (aequorin luminescence) in Hdh-TKRS-transfected CHO-K1 cells in [9] came out at 46 nM. Moreover, the EC50 of intracellular Ca2+ mobilization (aequorin luminescence) in Hdh-TKRL-transfected CHO-K1 cells in test [10] was determined as 32 nM.

In turn, GRHFGFVGSR-NH2 [Hdh-TK2-1] had an EC50 of intracellular Ca2+ mobilization (aequorin luminescence) in Hdh-TKRS-transfected CHO-K1 cells in test [9] of 4 nM. Moreover, the EC50 of intracellular Ca2+ mobilization (aequorin luminescence) in Hdh-TKRL-transfected CHO-K1 cells in test [10] came out at 5.2 nM.

B1: Hdh-TK1-3 (peptide)
peptide: [pGlu]PHFGFHGVR-NH2
SMILES: CC(C)[C@H](NC(=O)CNC(=O)[C@H](Cc1c[nH]cn1)NC(=O)[C@H](Cc1ccccc1)NC(=O)CNC(=O)[C@H](Cc1ccccc1)NC(=O)[C@H](Cc1c[nH]cn1)NC(=O)[C@@H]1CCCN1C(=O)[C@@H]1CCC(=O)N1)C(=O)N[C@@H](CCCNC(=N)N)C(N)=O
Molecule B1 yielded an EC50 of intracellular Ca2+ mobilization (aequorin luminescence) in Hdh-TKRS-transfected CHO-K1 cells in test [9] of 1.7 nM. In test [10], this molecule gave an EC50 of intracellular Ca2+ mobilization (aequorin luminescence) in Hdh-TKRL-transfected CHO-K1 cells of 1.1 nM.

As a reminder, the EC50 is the concentration at which the effect is half-maximal.
